Source: ChEMBL document CHEMBL1201862, “PubChem BioAssay data set” (2004)
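1) Cells in 96-well plates. 2) Compound, 48 h, 5 concentrations. 3) Linear interpolation between surrounding doses. 4) Unreached endpoint = highest concentration. GI50 marks 50% less growth.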 The source made the active and inactive calls. Rule as the data show it: active = GI50 up to about 1.1 µM and inactive = higher.

Experiments:
Experiment in all cases: DTP human tumour cell line panel, 48 h
SK-MEL-2 = system: SK-MEL-2
SF-539 = system: SF-539
SR = system: SR
SN12C = system: SN12C
RPMI-8226 = system: RPMI-8226
OVCAR-8 = system: OVCAR-8
COLO 205 = system: COLO 205
U-251 = system: U-251
MOLT-4 = system: MOLT-4
HCT-116 = system: HCT-116
SF-295 = system: SF-295
K562 = system: K562
UACC-62 = system: UACC-62
CAKI-1 = system: CAKI-1
KM12 = system: KM12
IGROV-1 = system: IGROV-1
NCI-H522 = system: NCI-H522
OVCAR-4 = system: OVCAR-4
DLD-1 = system: DLD-1
M14 = system: M14
HOP-92 = system: HOP-92
MCF7 = system: MCF7
TK-10 = system: TK-10
MDA-MB-435 = system: MDA-MB-435
OVCAR-5 = system: OVCAR-5
SNB-75 = system: SNB-75
NCI-H226 = system: NCI-H226
SK-MEL-28 = system: SK-MEL-28
SF-268 = system: SF-268
PC-3 = system: PC-3
ACHN = system: ACHN
A498 = system: A498
M19-MEL = system: M19-MEL
T47D = system: T47D
Hs-578T = system: Hs-578T
HT-29 = system: HT-29
MDA-N = system: MDA-N
HOP-18 = system: HOP-18
BT-549 = system: BT-549
RXF 393 = system: RXF 393
DMS-114 = system: DMS-114
DU-145 = system: DU-145
EKVX = system: EKVX
KM-20L2 = system: KM-20L2
HOP-62 = system: HOP-62
SW-620 = system: SW-620
CCRF-CEM = system: CCRF-CEM
DMS-273 = system: DMS-273
HL-60 = system: HL-60
LXFL 529 = system: LXFL 529
UO-31 = system: UO-31
SNB-19 = system: SNB-19
NCI-H23 = system: NCI-H23
LOX IMVI = system: LOX IMVI
NCI-H460 = system: NCI-H460
UACC-257 = system: UACC-257
786-0 = system: 786-0
A549 = system: A549
MDA-MB-231 = system: MDA-MB-231
XF498 = system: XF498
Malme-3M = system: Malme-3M
RXF 631 = system: RXF 631
SK-OV-3 = system: SK-OV-3
NCI/ADR-RES = system: NCI/ADR-RES
HCT-15 = system: HCT-15
SK-MEL-5 = system: SK-MEL-5
OVCAR-3 = system: OVCAR-3
HCC 2998 = system: HCC 2998

What does the source list for `O=C(NC(=O)c1ccccc1[N+](=O)[O-])Nc1ccc(Oc2ncc(Br)cn2)c(Cl)c1`?
GI50 (SK-MEL-2): 21.3 nM (active); GI50 (SF-539): 20.3 nM (active); GI50 (SR): 29.6 nM (active); GI50 (SN12C): 39.8 nM (active); GI50 (RPMI-8226): 25.6 nM (active); GI50 (OVCAR-8): 30.1 nM (active); GI50 (COLO 205): 46 nM (active); GI50 (U-251): 42.7 nM (active); GI50 (MOLT-4): 33 nM (active); GI50 (HCT-116): 25.5 nM (active); GI50 (SF-295): 13.7 nM (active); GI50 (K562): 19.4 nM (active); GI50 (UACC-62): 19 nM (active); GI50 (CAKI-1): 19.4 nM (active); GI50 (KM12): 23 nM (active); GI50 (IGROV-1): 25.8 nM (active); GI50 (NCI-H522): 13.1 nM (active); GI50 (OVCAR-4): 28.4 nM (active); GI50 (DLD-1): 14.8 nM (active); GI50 (M14): < 16 nM (active); GI50 (HOP-92): 49.5 nM (active); GI50 (MCF7): 26.5 nM (active); GI50 (TK-10): 36.2 nM (active); GI50 (MDA-MB-435): 8.02 nM (active); GI50 (OVCAR-5): 20.7 nM (active); GI50 (SNB-75): 23.1 nM (active); GI50 (NCI-H226): 14.8 nM (active); GI50 (SK-MEL-28): 28.6 nM (active); GI50 (SF-268): 47.8 nM (active); GI50 (PC-3): 29 nM (active); GI50 (ACHN): 50.8 nM (active); GI50 (A498): 22.5 nM (active); GI50 (M19-MEL): 19.6 nM (active); GI50 (T47D): 87.1 nM (active); GI50 (Hs-578T): 34.2 nM (active); GI50 (HT-29): 17.5 nM (active); GI50 (MDA-N): 8.57 nM (active); GI50 (HOP-18): 64 nM (active); GI50 (BT-549): 70.3 nM (active); GI50 (RXF 393): 7.71 nM (active); GI50 (DMS-114): < 18.4 nM (active); GI50 (DU-145): 31.8 nM (active); GI50 (EKVX): 34.8 nM (active); GI50 (KM-20L2): 22 nM (active); GI50 (HOP-62): 24.9 nM (active); GI50 (SW-620): 23.7 nM (active); GI50 (CCRF-CEM): 28.4 nM (active); GI50 (DMS-273): 16.5 nM (active); GI50 (HL-60): 3.83 nM (active); GI50 (LXFL 529): 30.2 nM (active); GI50 (UO-31): 28.1 nM (active); GI50 (SNB-19): 27.8 nM (active); GI50 (NCI-H23): 38.9 nM (active); GI50 (LOX IMVI): 52.8 nM (active); GI50 (NCI-H460): 25.2 nM (active); GI50 (UACC-257): 23.7 nM (active); GI50 (786-0): 21.5 nM (active); GI50 (A549): 42.8 nM (active); GI50 (MDA-MB-231): 46.9 nM (active); GI50 (XF498): 7.23 nM (active); GI50 (Malme-3M): 13.8 nM (active); GI50 (RXF 631): 28.4 nM (active); GI50 (SK-OV-3): 26.9 nM (active); GI50 (NCI/ADR-RES): 19.8 nM (active); GI50 (HCT-15): 44.1 nM; GI50 (SK-MEL-5): 22.4 nM (active); GI50 (OVCAR-3): 25.2 nM (active); GI50 (HCC 2998): 87.5 nM (active)
